Reference: patent US6344214B1, “Method for retarding and ameliorating fever blisters and canker sores” (priority 1999, dated 2002)
Read-outs that look alike come from different tables or passages of the source.

Experiments:
[1] = tested on: herpes Simplex virus; settings: cited from earlier work
[2] = tested on: cold sores; experiment: Example 1: oral astaxanthin soft gel capsules, cold sore outbreaks in one individual; format: in vivo, human
Description: (§1) Haematococcus algae meal containing 1.5% astaxanthin was thoroughly mixed with safflower oil such that the resulting suspension contained 2.0 mg of pure astaxanthin per gram of safflower oil suspension. 500 mg soft gel capsules were produced from the safflower oil suspension such that each soft gel capsule contained 1.0 mg of pure astaxanthin.
One individual was a person who has suffered from cold sore outbreaks every 4-6 weeks on average which lasted 10-14 days . This individual consumed 3.0 mg of astaxanthin (three soft gel capsules) per day for two weeks prior to an outbreak, and the symptoms lasted only 2 days instead of 2 weeks.

[3] = tested on: canker sores; experiment: Example 2: oral astaxanthin soft gel capsules, canker sores in one individual; format: in vivo, human
Description: as §1
A second individual was a person who had often suffered canker sores on the inside of their mouth. They had difficulty and pain eating sour and tart foods due to the condition. This individual consumed 2.0 mg of astaxanthin (two soft gel capsules) per day for three weeks and the cankers sores were alleviated. They were then able to eat sour and tart foods without suffering pain from the canker sores. When the individual stopped taking the supplement the canker sores returned within 10 days.

[4] = tested on: neoplasms in the large intestines; settings: rats fed astaxanthin, azoxymethane induction; cited from earlier work
[5] = tested on: preneoplastic lesions and neoplasms in the bladder; settings: 50-ppm astaxanthin in drinking water; cited from earlier work
[6] = tested on: neoplasms in the oral cavity; settings: cited from earlier work
[7] = tested on: neoplastic liver lesions; settings: dietary astaxanthin; cited from earlier work
[8] = tested on: CYP1A1; settings: dietary level 300 ppm; cited from earlier work
[9] = tested on: free putrescine in the epidermis; settings: 10 ppm astaxanthin diet, 4 months; control increased 4.1-fold; cited from earlier work
[10] = tested on: rat kidney fibroblasts; settings: UVA light for four hours; cited from earlier work
[11] = tested on: chicken embryo fibroblasts (CEF); settings: SOD, catalase, glutathione peroxidase as indices; cited from earlier work
[12] = 0.1% dietary astaxanthin for 30 days, cited from earlier work
[13] = 2 mg astaxanthin capsule, six months; placebo 21.78; P=0.047; cited from earlier work
[14] = tested on: shrimp; settings: 50 mg/kg diet, 3 months; cited from earlier work
[15] = tested on: Atlantic salmon fry; settings: cited from earlier work
[16] = in vivo; cited from earlier work
[17] = tested on: photoreceptor cells of the retina; settings: 37.5 mg/kg intraperitoneal at 12 hour intervals; uninjured control 45, injured without astaxanthin 32; cited from earlier work
[18] = tested on: rhodopsin; settings: oral dosing, cited from earlier work
[19] = tested on: rats; settings: 400 ppm for 41 days; cited from earlier work

**Q.** For `Nc1nc2c(ncn2COCCO)c(=O)[nH]1` [acyclovir, Acyclovir], which “patients with no fever blister outbreaks” value ([1]; four acyclovir pills daily for 4 months) is on record?
**A.** Its value is 50%.

**Q.** And the “effectiveness against fever blisters” value ([1]; pills taken at onset of symptoms, or cream applied to blisters or tingling lip areas, separate studies)?
**A.** Its value is “only minimally effective”.

**Q.** With `CC1=C(/C=C/C(C)=C/C=C/C(C)=C/C=C/C=C(C)/C=C/C=C(C)/C=C/C2=C(C)C(=O)[C@@H](O)CC2(C)C)C(C)(C)C[C@H](O)C1=O` [astaxanthin] as the molecule, how does the “duration of cold sore symptoms” value ([2]; 3.0 mg astaxanthin per day (three soft gel capsules) for two weeks before the outbreak, earlier 10-14 days) read?
**A.** Its value is 2 days.

**Q.** What about the “recurrence of cold sores” value ([2]; 3.0 mg per day, earlier outbreaks every 4-6 weeks) of the same molecule?
**A.** The value was “has not had a another recurrence of cold sores in three months”.

**Q.** And the “effect on canker sores” value ([3]; 2.0 mg astaxanthin per day (two soft gel capsules) for three weeks)?
**A.** Its value is “alleviated”.

**Q.** What about the “time to return of canker sores after stopping the supplement” value ([3]; after stopping 2.0 mg per day) of the same molecule?
**A.** The value was ≤ 10 days.

**Q.** And the “effect on symptoms on taking the supplement again” value ([3]; same dosage, 2.0 mg per day)?
**A.** The value was “ameliorated after approximately three weeks”.

**Q.** And the “incidence and multiplicity of neoplasms in the large intestines” value [4]?
**A.** The value was “significantly smaller”.

**Q.** And the “incidence of preneoplastic lesions and neoplasms in the bladder” value [5]?
**A.** The value was “significantly reduced incidence”.

**Q.** What about the “incidences of preneoplastic and neoplasms in the oral cavity” value ([6]; 100-ppm dietary astaxanthin after the carcinogenic chemical induction) of the same molecule?
**A.** Its value is “significantly smaller”.

**Q.** And the oral neoplasms ([6]; astaxanthin and the chemical inducer fed at the same time)?
**A.** The oral neoplasms was “no oral neoplasms developed”.

**Q.** And the “number and size of neoplastic liver lesions” value [7]?
**A.** The value was “significant influence on the reduction in number and size”.

**Q.** And the “induction of CYP1A1” value [8]?
**A.** The value was “strong inducer”.

**Q.** What about the “increase of putrescine after UV irradiation” value [9] of the same molecule?
**A.** Its value is 1.5 fold.

**Q.** What about the “level required to restore superoxide dismutase activity” value [10] of the same molecule?
**A.** The value was 5 nM.

**Q.** And the “level that prevented the UVA-induced increase in TBARS” value [10]?
**A.** Its value is 1 nM.

**Q.** What about the “level that returned catalase activity to control levels” value [10] of the same molecule?
**A.** Its value is 5 nM.

**Q.** And the “protection against paraquat-induced oxidative stress” value [11]?
**A.** The value was “observed at all levels of astaxanthin tested”.

**Q.** What about the LDL cholesterol ([12]; control diet 12.5) of the same molecule?
**A.** Its LDL cholesterol is 9.6 mg/dL.

**Q.** And the HDL cholesterol ([12]; control diet 42.4)?
**A.** Its HDL cholesterol is 57 mg/dL.

**Q.** And the “strength/endurance average score (knee bends with a barbell weight)” value [13]?
**A.** Its value is 61.74.

**Q.** And the average survival rate [14]?
**A.** The average survival rate was 87%.

**Q.** What about the survival rate ([15]; astaxanthin concentrations below 1 ppm in diet) of the same molecule?
**A.** Its survival rate is “less than 50%”.

**Q.** What about the survival rate ([15]; groups receiving higher concentrations) of the same molecule?
**A.** Its survival rate is “greater than 90%”.

**Q.** What about the “crossing of the blood-brain barrier” value [16] of the same molecule?
**A.** The value was “able to readily cross the blood-brain barrier”.

**Q.** What about the “outer nuclear layer (ONL) thickness after photic injury” value [17] of the same molecule?
**A.** The value was 42 microns.

**Q.** What about the retinal rhodopsin level ([18]; 6-hour post injury, control 0.75) of the same molecule?
**A.** The retinal rhodopsin level was 1.15 to 1.2 nmol.

**Q.** What about the retinal rhodopsin level ([18]; 6 days after injury, constant through day 13, control 0.5) of the same molecule?
**A.** The retinal rhodopsin level was “about 1.25 nmol”.

**Q.** What about the “effects on body/organ weight, enzyme activities, pregnancy, litter size” value [19] of the same molecule?
**A.** The value was “no harmful effects”.

**Q.** Which results are given for `CC1=C(/C=C/C(C)=C/C=C/C(C)=C/C=C/C=C(C)/C=C/C=C(C)/C=C/C2=C(C)CCCC2(C)C)C(C)(C)CCC1` [beta-carotene]?
**A.** level required to restore superoxide dismutase activity [10]: 500 nM; level that prevented the UVA-induced increase in TBARS [10]: 100 nM; level that returned catalase activity to control levels [10]: 1000 nM; average survival rate [14]: 50%

**Q.** With `CC1=C[C@H](O)CC(C)(C)[C@H]1/C=C/C(C)=C/C=C/C(C)=C/C=C/C=C(C)/C=C/C=C(C)/C=C/C1=C(C)C[C@@H](O)CC1(C)C` [lutein] as the molecule, how does the “level required to restore superoxide dismutase activity” value [10] read?
**A.** The value was 1000 nM.

**Q.** What about the “level that prevented the UVA-induced increase in TBARS” value [10] of the same molecule?
**A.** Its value is 1000 nM.

**Q.** And the “level that returned catalase activity to control levels” value [10]?
**A.** Its value is 100 nM.
